Reference: patent publication US5614623A, “Diastereomers of 1-(isopropoxycarbonyloxy)ethyl 3-cephem-4-carboxylate and processes for their preparation” (Hoechst Aktiengesellschaft, priority 1991, dated 1997)
Like-named read-outs stand apart in the source and are kept apart here.

Tests used:
[1] = recovery rate of the cephalosporin with free carboxyl group in the urine of dogs after oral administration of the diastereomeric prodrug ester (enteral absorption); assay type: in vivo; details: for bioavailability: comparison between the diastereomers / with the diastereomer mixture of cefpodoxime proxetil
[2] = stability under the conditions of column chromatography; assay type: physicochemical; details: both diastereomers and the diastereomer mixture
[3] = various animal species and man; cited from earlier work
[4] = test system: enzymes endogenous to the body; details: after absorption, by enzymes endogenous to the body; cited from earlier work
[5] = diastereomers; T. Nishimura et al., The Journal of Antibiotics 40, 81-90 (1987); cited from earlier work

For `COCC1=C(C(=O)OC(C)OC(=O)OC(C)C)N2C(=O)[C@@H](NC(=O)/C(=N\OC)c3csc(N)n3)[C@H]2SC1` (single isomer, unassigned; diastereomer b) [Example 8], the enteral absorption ([1]; as shown in Table 1) was “increased enteral absorption”, the bioavailability ([1]; listed as the more absorbable diastereomer) was “higher bioavailability than the diastereomer mixture” and the bioavailability ([1]; listed as the more polar of the two diastereomers) was “higher bioavailability”.

In the case of `COCC1=C(C(=O)OC(C)OC(=O)OC(C)C)N2C(=O)[C@@H](NC(=O)/C(=N\OC)c3csc(N)n3)[C@H]2SC1` (mixture of isomers) [cefpodoxime proxetil, 1-(Isopropoxycarbonyloxy)ethyl (6R, 7R)-7-[2-(2-aminothiazol-4-yl)-2-(Z)-(methoxyimino)acetamido]-3-methoxymethyl-3-cephem-4-carboxylate (diastereomer mixture, Cefpodoxime Proxetil)], the stability [2] is listed as “unstable”, the enteral absorption [3] is listed as “readily enterally absorbed” and the “cleavage to the antibiotically active cephalosporin having a free carboxyl group” value [4] is listed as “rapidly and completely cleaved”.

For `CC(OC(=O)OC1CCCCC1)OC(=O)C1=C(CSc2nnnn2CCN(C)C)CS[C@@H]2[C@H](NC(=O)Cc3csc(N)n3)C(=O)N12` (stereo partly shown) [cefotiam hexetil], the “effect of configuration in the 1-position on the level of enteral absorption” value [5] is listed as “no effect on the level of enteral absorption”.
